Results reported in publication PMC6443962, “Anti-nociceptive and Anti-inflammatory Activities of Asparacosin A Involve Selective Cyclooxygenase 2 and Inflammatory Cytokines Inhibition: An in-vitro, in-vivo, and in-silico Approach” (Frontiers in Immunology, 2019).

Assays:
[1] = target: T1, COX-2 (cyclooxygenase 2, human recombinant) (Homo sapiens, UniProt P35354); assay: colorimetric COX inhibitor screening assay (Cayman kit […]); format: biochemical
T1 construct: gene PTGS2
T1 sequence (P35354 18-604): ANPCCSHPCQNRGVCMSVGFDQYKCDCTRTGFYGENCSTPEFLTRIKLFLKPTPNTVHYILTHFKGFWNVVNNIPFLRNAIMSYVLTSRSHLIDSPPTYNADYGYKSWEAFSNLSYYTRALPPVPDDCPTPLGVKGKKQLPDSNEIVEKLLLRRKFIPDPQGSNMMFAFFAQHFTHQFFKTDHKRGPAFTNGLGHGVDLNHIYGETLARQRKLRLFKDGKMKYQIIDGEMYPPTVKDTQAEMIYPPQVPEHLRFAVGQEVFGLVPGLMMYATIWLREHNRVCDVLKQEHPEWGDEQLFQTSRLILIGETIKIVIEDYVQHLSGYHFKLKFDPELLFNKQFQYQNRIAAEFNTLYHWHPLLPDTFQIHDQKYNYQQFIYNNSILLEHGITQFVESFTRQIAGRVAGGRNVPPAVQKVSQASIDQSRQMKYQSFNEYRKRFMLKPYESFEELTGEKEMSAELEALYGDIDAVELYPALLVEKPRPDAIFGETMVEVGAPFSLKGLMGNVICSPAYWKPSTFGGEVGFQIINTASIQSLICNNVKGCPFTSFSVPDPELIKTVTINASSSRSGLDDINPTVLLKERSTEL

[2] = target: T2, COX-1 (cyclooxygenase 1, ovine) (Ovis aries, UniProt P05979); assay: as above; format: biochemical
T2 construct: gene PTGS1
T2 sequence (P05979 25-600): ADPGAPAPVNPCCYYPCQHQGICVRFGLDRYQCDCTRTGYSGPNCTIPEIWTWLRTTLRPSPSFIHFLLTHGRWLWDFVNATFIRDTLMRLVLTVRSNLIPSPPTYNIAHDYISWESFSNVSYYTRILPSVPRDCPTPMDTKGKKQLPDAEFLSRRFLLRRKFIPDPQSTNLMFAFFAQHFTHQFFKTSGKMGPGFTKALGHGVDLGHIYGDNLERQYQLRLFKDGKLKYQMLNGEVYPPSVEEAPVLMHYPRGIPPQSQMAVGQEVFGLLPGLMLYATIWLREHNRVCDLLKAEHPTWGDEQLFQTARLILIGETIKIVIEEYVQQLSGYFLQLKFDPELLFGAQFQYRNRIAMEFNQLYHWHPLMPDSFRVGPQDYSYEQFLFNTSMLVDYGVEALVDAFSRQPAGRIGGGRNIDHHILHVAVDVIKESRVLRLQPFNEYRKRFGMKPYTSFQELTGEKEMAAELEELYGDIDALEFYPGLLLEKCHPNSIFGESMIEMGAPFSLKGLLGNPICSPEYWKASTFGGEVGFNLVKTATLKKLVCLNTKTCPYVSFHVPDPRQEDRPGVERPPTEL

Which IC50 [1] does the source give for `C[C@@H]1CC[C@@]2(OC1)O[C@H]1C[C@H]3[C@@H]4CCC5=CC(=O)CC[C@]5(C)[C@H]4C[C@@H](O)[C@]3(C)[C@@]1(O)[C@@H]2C` [Asparacosin A] here?
Its IC50 is 0.6 µM.

What about the IC50 [2] of the same compound?
The IC50 was 24.2 µM.
